From patent US20160216351A1, “METHOD FOR DETECTING OXIDATION/REDUCTION REACTION IN VIVO” (KYUSHU UNIVERSITY, NATIONAL UNIVERSITY CORPORATION, priority 2013, published 2016)

Assays:
[1] = tested on: mitochondria collected from a rat; test: ReMI metabolic imaging in the presence of mitochondria (phantom tubes); type: in vitro ADME; conditions: mitochondria fractions of various concentrations
Protocol: The ReMI experiment was conducted by using a DNP-MRI system manufactured at Kyushu University. The DNP-MRI system was constituted by using an external magnet for an EPR device (JES-ES20, JEOL Ltd.) and two axis field gradient coils for CW-EPR imaging. A resonator was constituted of a surface coil for ESR irradiation, an NMR cross coil within a saddle, and a solenoid for transmission and signal reception. An ESR irradiation coil was disposed between two NMR coils. […] A surface coil (diameter: 20 mm) was used for ESR irradiation, and an NMR coil assembly was constituted of an NMR transmission saddle coil (90 mm i.d., 175 mm in length) and a solenoid reception coil (40 mm i.d., 60 mm in length) having a bandwidth of 1 kHz. The maximum transmission power was 100 W. The ReMI experiment was conducted by a spin echo method. The ReMI experiment was conducted under the following conditions: EPR irradiation power, 12 W; flip angle, 90 degrees; TEPR×repetition time (TR)×echo time (TE)=500×1000×40 ms; average number=1; slice thickness, 30 mm; and a 64-phase modulation step. For the image field (32×32 mm), 64×64 matrix was used.
To a phantom tube filled with mitochondria collected from a rat was added FADH or CoQ0H in an experiment. […] The metabolic rates (decreasing rates) of FADH and CoQ0H were calculated from changes in the first four image intensities after the reaction with mitochondria.

C57BL6 mice = test: Metabolic imaging in mice using sequential ReMI; type: in vivo
Text: Female C57BL6 mice (5 weeks old) were purchased from Japan SLC, Inc. (Hamamatsu, Japan) and acclimated for one week before the experiment. Mice were 6 to 8 weeks old at the time of the experiment (body weight: 20-30 g), and five mice were kept in each cage in a room that was adjusted to a 24-hour cycle rhythm, wherein the temperature and moisture of the room were also adjusted. Food and water were given ad libitum. All the procedures and animal care were approved by the Animal Experiment Ethics Committee of Kyushu University and carried out in accordance with guidelines for animal experiments established by Kyushu University.
Mice were anesthetized with 2% isoflurane in the FADH experiment or with urethane (2 g/kg) in the CoQ0H experiment and immobilized with a skin adhesive tape, wherein the stomach was placed to the lower side. During the experiment, the temperature of mice was kept at 37+/−1° C. with a warm current of air. Subsequently, mice were placed in a resonator and ReMI measurement was started. ReMI images of the lower abdominal region were examined after administering an 8 mM CoQ0 alkaline solution (800 μL) to the rectum or administering an FAD/NADH solution intramuscularly.
ReMI images were obtained by using a DNP-MRI system manufactured at Kyushu University in an experiment using FADH and a Philips prototype system in an experiment using CoQ0. The ReMI experiment was conducted using the abovementioned parameters. Radical metabolic images (redox maps) were obtained by calculating changes in ReMI intensity in each pixel among the first four ReMI images (from a semi-logarithmic plot line of each pixel on sequential images).

redox map (intensity declining speed) ([1]; calculated from first four image intensities): no change
change in ReMI image intensity over time after reaction with mitochondria ([1]; images every two minutes, EPR irradiation 572.5 MHz): no reaction with mitochondria
pharmacokinetic map (decreasing rate) (C57BL6 mice; calculated from first four ReMI images): constant
metabolism in the muscle by ReMI scanning (C57BL6 mice; intramuscular administration): metabolized slowly
ReMI image intensity during the test period (C57BL6 mice; intramuscular administration in both legs, imaging every two minutes, 14 minutes): stable
Substance: FADH
distribution in fusion images of MRI and ReMI (C57BL6 mice; FADH intramuscular, CoQ0H rectal): site-specifically distributed in the legs
